“Also recorded” adds a separate entry of the source.
Columns and labels:
Assay type in all cases: in vivo
[1] = system: human ovarian cancer cells OC-11-JCK/PTX; test: Anti-tumor test in mice transplanted subcutaneously with tumor (OC-11-JCK/PTX); conditions: OC-11-JCK/PTX s.c. in mice
Method: Human ovarian cancer cell lines OC-10-JCK, OC-11-JCK, and TOGY-18, and a human breast cancer cell line MC-19-JCK were obtained from Central Institute for Experimental Animals. Cryopreserved tumor pieces were thawed, and then OC-10-JCK, OC-11-JCK, and MC-19-JCK were transplanted subcutaneously to SCID mice, while TOGY-18 was transplanted subcutaneously to nude mice. After the tumors were grown, the tumors were removed and cut into tumor pieces. The tumor pieces were transplanted subcutaneously to SCID mice or nude mice with trocars. The tumors were maintained by repeated transplantation in the same manner as described above to prepare tumors to be transplanted. Human ovarian cancer cell lines ES-2, SK-OV-3, OV-90, and TOV-21G, and a human lung cancer cell line NCI-H1975 were obtained from American Type Culture Collection (ATCC). The SK-OV-3 and NCI-H1975 cell lines were grown in recommended culture media, of which about 1×10^7 cells were suspended into HBSS and then injected subcutaneously to SCID mice. After the cells formed tumors, the tumors were removed and cut into tumor pieces. The tumor pieces were transplanted subcutaneously to SCID mice with trocars. The tumors were maintained by repeated transplantation in the same manner as described above to prepare tumors to be transplanted. The OV-90 cell line was grown in a recommended culture medium, of which about 1×10^6 cells were suspended into HBSS and then injected subcutaneously to SCID mice. After the cells formed a tumor, the tumor was subjected to an anti-tumor test. The TOV-21G cell line was grown in a recommended culture medium, of which about 1×10^7 cells were suspended into HBSS and then injected subcutaneously to SCID mice. After the cells formed a tumor, the tumor was subjected to the anti-tumor test. The ES-2 cell line was grown in a recommended culture medium, suspended into HBSS, and then injected subcutaneously to nude mice. After the cells formed a tumor, the tumor was removed and cut into tumor pieces. The tumor pieces were transplanted subcutaneously to nude mice with a trocar. […]

[2] = system: human ovarian cancer cell line OC-10-JCK; test: Anti-tumor test in mice transplanted subcutaneously with tumor (OC-10-JCK); conditions: OC-10-JCK s.c. in mice; 40 mg/kg tail vein three times at 4 day intervals
Method: (§1) Human ovarian cancer cell lines OC-10-JCK, OC-11-JCK, and TOGY-18, and a human breast cancer cell line MC-19-JCK were obtained from Central Institute for Experimental Animals. Cryopreserved tumor pieces were thawed, and then OC-10-JCK, OC-11-JCK, and MC-19-JCK were transplanted subcutaneously to SCID mice, while TOGY-18 was transplanted subcutaneously to nude mice. After the tumors were grown, the tumors were removed and cut into tumor pieces. The tumor pieces were transplanted subcutaneously to SCID mice or nude mice with trocars. The tumors were maintained by repeated transplantation in the same manner as described above to prepare tumors to be transplanted. Human ovarian cancer cell lines ES-2, SK-OV-3, OV-90, and TOV-21G, and a human lung cancer cell line NCI-H1975 were obtained from American Type Culture Collection (ATCC). The SK-OV-3 and NCI-H1975 cell lines were grown in recommended culture media, of which about 1×10^7 cells were suspended into HBSS and then injected subcutaneously to SCID mice. After the cells formed tumors, the tumors were removed and cut into tumor pieces. The tumor pieces were transplanted subcutaneously to SCID mice with trocars. The tumors were maintained by repeated transplantation in the same manner as described above to prepare tumors to be transplanted. […]

[3] = system: human ovarian cancer cells OV-90; test: Anti-tumor test in mice transplanted subcutaneously with tumor (OV-90); conditions: OV-90 s.c. in mice
Method: as §1

[4] = system: human lung cancer cells NCI-H1975; test: Anti-tumor test in mice transplanted subcutaneously with tumor (NCI-H1975); conditions: NCI-H1975 s.c. in mice; 40 mg/kg three times at 7 day intervals
Method: as §1

[5] = system: human breast cancer cells MC-19-JCK; test: Anti-tumor test in mice transplanted subcutaneously with tumor (MC-19-JCK); conditions: MC-19-JCK s.c. in mice; administered once at 40 mg/kg
Method: as §1

[6] = system: human ovarian cancer cells 2008; test: Anti-tumor test in mice transplanted subcutaneously with tumor (2008); conditions: 2008 s.c. in mice
Method: as §1

[7] = system: human ovarian cancer cell line ES-2; test: Anti-tumor test in mice transplanted subcutaneously with tumor (ES-2); conditions: ES-2 s.c. in mice
Method: as §1

[8] = system: human ovarian cancer cells SK-OV-3; test: Anti-tumor test in mice transplanted subcutaneously with tumor (SK-OV-3); conditions: SK-OV-3 s.c. in mice
Method: as §1

[9] = system: human ovarian cancer cells OC-11-JCK; test: Anti-tumor test in mice transplanted subcutaneously with tumor (OC-11-JCK); conditions: OC-11-JCK s.c. in mice; 40 mg/kg tail vein three times at 4 day intervals
Method: as §1

[10] = system: human ovarian cancer cells TOV-21G; test: Anti-tumor test in mice transplanted subcutaneously with tumor (TOV-21G); conditions: TOV-21G s.c. in mice
Method: as §1

[11] = system: human ovarian cancer cells SHIN-3; test: Anti-tumor test in mice transplanted subcutaneously with tumor (SHIN-3); conditions: SHIN-3 s.c. in mice
Method: as §1

[12] = system: human ovarian cancer cells OC-11-JCK/CDDP; test: Anti-tumor test in mice transplanted subcutaneously with tumor (OC-11-JCK/CDDP); conditions: OC-11-JCK/CDDP s.c. in mice; 40 mg/kg tail vein three times at 4 day intervals
Method: as §1

[13] = 40 mg/kg tail vein three times at 4 day intervals

## CC(C)c1cc(-c2n[nH]c(=O)n2-c2ccc(CN3CCN(C)CC3)cc2)c(O)cc1O [A-1, 5-(2,4-dihydroxy-5-isopropyl-phenyl)-4-[4-(4-methyl-piperazin-1-ylmethyl)-phenyl]-2,4-dihydro-[1,2,4]triazol-3-one]
[1]
  anti-tumor effect (in words): hardly effective; also recorded: lowly effective
[1]; [13]
  T/C % (lowest value from the beginning to the 21st day of administration): 62.4%
[2]
  T/C % (lowest value from the beginning to the 21st day of administration): 50.2%
[3]
  anti-tumor effect (in words): relatively highly effective
[3]; [13]
  T/C % (lowest value from the beginning to the 21st day of administration): 30.4%
[4]
  T/C % (lowest value from the beginning to the 21st day of administration): 49.4%
[5]
  T/C % (lowest value from the beginning to the 21st day of administration): 5.2%
[6]
  anti-tumor effect (in words): lowly effective
[6]; [13]
  T/C % (lowest value from the beginning to the 21st day of administration): 51.7%
[7]
  anti-tumor effect (in words): relatively highly effective
[7]; [13]
  T/C % (lowest value from the beginning to the 21st day of administration): 25.6%
[8]
  anti-tumor effect (in words): relatively highly effective
[8]; [13]
  T/C % (lowest value from the beginning to the 21st day of administration): 3.0%
[9]
  T/C % (lowest value from the beginning to the 21st day of administration): 36.0%
[10]
  anti-tumor effect (in words): relatively highly effective
[10]; [13]
  T/C % (lowest value from the beginning to the 21st day of administration): 25.0%
[11]
  anti-tumor effect (in words): hardly effective; also recorded: lowly effective
[11]; [13]
  T/C % (lowest value from the beginning to the 21st day of administration): 78.1%
[12]
  T/C % (lowest value from the beginning to the 21st day of administration): 46.4%

From US20160313301A1, “METHOD FOR PREDICTING ANTITUMOR EFFICACY OF HSP90 INHIBITOR IN CANCER TREATMENT” (NIPPON KAYAKU KABUSHIKI KAISHA, priority 2013, published 2016)
